Test results published in ChEMBL document CHEMBL4715703, “Engineering of a Novel Simplified Human Insulin-Like Peptide 5 Agonist” (J Med Chem, 2016).
Where a SMILES comes first, the peptide text is derived from it. Bridges are numbered along the chain shown (N, C = ends). Roman numbers before positions name the chains, in order.

Experiments:
Relaxin-3 receptor 2 [1] = target: T1, Relaxin-3 receptor 2 (Homo sapiens, UniProt Q8TDU9); assay: Agonist activity at human RXFP4 expressed in CHO-K1 cells assessed as reduction in forskolin-induced cAMP production by pCRE beta-galactosidase reporter assay; format: functional, cell-based
T1 sequence (Q8TDU9 whole entry): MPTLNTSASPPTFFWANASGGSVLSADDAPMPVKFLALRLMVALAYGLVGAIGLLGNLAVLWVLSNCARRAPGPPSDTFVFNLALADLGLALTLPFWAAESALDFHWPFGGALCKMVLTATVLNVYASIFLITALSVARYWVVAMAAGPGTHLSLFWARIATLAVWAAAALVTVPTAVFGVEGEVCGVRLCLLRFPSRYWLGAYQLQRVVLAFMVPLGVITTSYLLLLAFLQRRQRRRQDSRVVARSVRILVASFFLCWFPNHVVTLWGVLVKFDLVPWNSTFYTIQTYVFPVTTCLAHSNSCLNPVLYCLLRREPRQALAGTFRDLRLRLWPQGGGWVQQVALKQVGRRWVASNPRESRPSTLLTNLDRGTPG

Relaxin-3 receptor 2 [2] = target: T1, Relaxin-3 receptor 2; assay: Displacement of europium-labeled Eu(A)-mINSL5 from human RXFP4 expressed in CHO-K1 cells; format: cell-based

Row | EC50 (Relaxin-3 receptor 2 [1]) | Ki (Relaxin-3 receptor 2 [2]) | Structure (SMILES)
1 | 2.75 nM |  | CC[C@H](C)[C@@H]1NC(=O)[C@H](Cc2ccc(O)cc2)NC(=O)[C@H]([C@@H](C)CC)NC(=O)[C@H](C(C)C)NC(=O)[C@H]([C@@H](C)O)NC(=O)[C@H](CCCNC(=N)N)NC(=O)[C@H](C(C)C)NC(=O)[C@H](Cc2ccc(O)cc2)NC(=O)[C@H](CC(=O)O)NC(=O)[C@H](CC(C)C)NC(=O)CNC(=O)[C@@H](NC(=O)[C@H](CC(C)C)NC(=O)[C@H](CCCCN)NC(=O)[C@@H](NC(=O)[C@@H](NC(=O)[C@H](CCC(N)=O)NC(=O)[C@H](CCCNC(=N)N)NC(=O)[C@@H](N)CO)[C@@H](C)O)C(C)C)CSSC[C@@H]2NC(=O)[C@@H](NC(=O)[C@H](CC(C)C)NC(=O)[C@@H](NC(=O)[C@H](CCC(N)=O)NC(=O)[C@H](CC(C)C)NC(=O)[C@H](CC(=O)O)NC(=O)C3CCC(=O)N3)[C@@H](C)O)CSSC[C@@H](NC(=O)CNC(=O)[C@H](CC(=O)O)NC(=O)[C@H]([C@@H](C)O)NC2=O)C(=O)N[C@H](CO)C(=O)N[C@H](CCSC)C(=O)N[C@H]([C@H](C)O)C(=O)N[C@H](CC(=O)O)C(=O)N[C@H](CC(C)C)C(=O)N[C@H](CO)C(=O)N[C@H](C)C(=O)N[C@H](CC(C)C)C(=O)N[C@@H](C(=O)O)CSSC[C@H](C(=O)N[C@@H](C)C(=O)N[C@@H](CO)C(=O)N[C@@H](CO)C(=O)N[C@@H](CCCNC(=N)N)C(=O)N[C@@H](Cc2c[nH]c3ccccc23)C(=O)O)NC1=O (some centres undefined)
2 | 0.51 nM | 1.58 nM | CC[C@H](C)[C@@H]1NC(=O)[C@H](C(C)C)NC(=O)[C@H]([C@@H](C)O)NC(=O)[C@H](CCCNC(=N)N)NC(=O)[C@H](C(C)C)NC(=O)[C@H](Cc2ccc(O)cc2)NC(=O)[C@H](CC(=O)O)NC(=O)[C@H](CC(C)C)NC(=O)CNC(=O)[C@@H](NC(=O)[C@H](CC(C)C)NC(=O)[C@H](CCCCN)NC(=O)[C@@H](NC(=O)[C@@H](NC(=O)[C@H](CCC(N)=O)NC(=O)[C@H](CCCNC(=N)N)NC(=O)[C@@H](N)CO)[C@@H](C)O)C(C)C)CSSC[C@@H]2NC(=O)[C@@H](NC(=O)[C@H](CC(C)C)NC(=O)[C@H](C)NC(=O)[C@H](CCC(N)=O)NC(=O)[C@H](CC(C)C)NC(=O)[C@H](CC(=O)O)NC(=O)[C@@H](N)CCCNC(=N)N)CSSC[C@H](NC(=O)CNC(=O)[C@H](CCC(=O)O)NC(=O)[C@H](CCCNC(=N)N)NC2=O)C(=O)N[C@@H](CO)C(=O)N[C@@H](CCSC)C(=O)N[C@@H](CCCCN)C(=O)N[C@@H](CCC(=O)O)C(=O)N[C@@H](CC(C)C)C(=O)N[C@@H](CO)C(=O)N[C@@H]([C@@H](C)O)C(=O)N[C@@H](CC(C)C)C(=O)N[C@H](C(=O)O)CSSC[C@@H](C(=O)N[C@@H](C)C(=O)N[C@@H](CO)C(=O)N[C@@H](CO)C(=O)N[C@@H](CCCNC(=N)N)C(=O)N[C@@H](Cc2c[nH]c3ccccc23)C(=O)O)NC(=O)[C@H]([C@@H](C)CC)NC(=O)[C@@H](Cc2ccc(O)cc2)NC1=O
3 | 39.8 nM | 23.4 nM | CC[C@H](C)[C@@H]1NC(=O)[C@H](Cc2ccc(O)cc2)NC(=O)[C@H]([C@@H](C)CC)NC(=O)[C@H](C(C)C)NC(=O)[C@H]([C@@H](C)O)NC(=O)[C@H](CCCNC(=N)N)NC(=O)[C@H]([C@@H](C)CC)NC(=O)[C@H](Cc2ccc(O)cc2)NC(=O)[C@H](CCC(=O)O)NC(=O)[C@H](CC(C)C)NC(=O)CNC(=O)[C@@H](NC(=O)[C@H](CC(C)C)NC(=O)[C@H](CCCNC(=N)N)NC(=O)[C@@H](NC(=O)[C@H](CO)NC(=O)[C@H](CCC(=O)O)NC(=O)[C@@H](N)CCCCN)C(C)C)CSSC[C@H](N)C(=O)N[C@@H](CCCNC(=N)N)C(=O)N[C@@H](CC(=O)O)C(=O)NCC(=O)N[C@@H](C)C(=O)N[C@@H](CO)C(=O)N[C@@H](CCSC)C(=O)N[C@@H](CCCCN)C(=O)N[C@@H](CC(=O)O)C(=O)N[C@@H](CC(C)C)C(=O)N[C@@H](CO)C(=O)N[C@@H](C)C(=O)N[C@@H](CC(C)C)C(=O)N[C@H](C(=O)O)CSSC[C@@H](C(=O)N[C@@H](C)C(=O)N[C@@H](CO)C(=O)N[C@@H](CO)C(=O)N[C@@H](CCCNC(=N)N)C(=O)N[C@@H](Cc2c[nH]c3ccccc23)C(=O)O)NC1=O (I: H-KESVRLCGLEYIRTVIYICASSRW-OH / II: H-CRDGASMKDLSALC-OH; disulfide I:7-II:1, I:19-II:14)
4 | 603 nM | 912 nM | CC[C@H](C)[C@@H]1NC(=O)[C@H](Cc2ccc(O)cc2)NC(=O)[C@H]([C@@H](C)CC)NC(=O)[C@H](C(C)C)NC(=O)[C@H]([C@@H](C)O)NC(=O)[C@H](CCCNC(=N)N)NC(=O)[C@H]([C@@H](C)CC)NC(=O)[C@H](Cc2ccc(O)cc2)NC(=O)[C@H](CCC(=O)O)NC(=O)[C@H](CC(C)C)NC(=O)CNC(=O)[C@@H](NC(=O)[C@H](CC(C)C)NC(=O)[C@H](CCCNC(=N)N)NC(=O)[C@@H](NC(=O)[C@H](CO)NC(=O)[C@H](CCC(=O)O)NC(=O)[C@@H](N)CCCCN)C(C)C)CSSC[C@H](N)C(=O)N[C@@H](CCCNC(=N)N)C(=O)N[C@@H](CC(=O)O)C(=O)NCC(=O)N[C@@H](C)C(=O)N[C@@H](CO)C(=O)N[C@@H](CCSC)C(=O)N[C@@H]([C@@H](C)O)C(=O)N[C@@H](CC(=O)O)C(=O)N[C@@H](CC(C)C)C(=O)N[C@@H](CO)C(=O)N[C@@H](C)C(=O)N[C@@H](CC(C)C)C(=O)N[C@H](C(=O)O)CSSC[C@@H](C(=O)N[C@@H](C)C(=O)N[C@@H](CO)C(=O)N[C@@H](CO)C(=O)N[C@@H](CCCNC(=N)N)C(=O)N[C@@H](Cc2c[nH]c3ccccc23)C(=O)O)NC1=O (I: H-KESVRLCGLEYIRTVIYICASSRW-OH / II: H-CRDGASMTDLSALC-OH; disulfide I:7-II:1, I:19-II:14)
5 | 15.1 nM | 22.4 nM | CC[C@H](C)[C@@H]1NC(=O)[C@H](Cc2ccc(O)cc2)NC(=O)[C@H]([C@@H](C)CC)NC(=O)[C@H](C(C)C)NC(=O)[C@H]([C@@H](C)O)NC(=O)[C@H](CCCNC(=N)N)NC(=O)[C@H]([C@@H](C)CC)NC(=O)[C@H](Cc2ccc(O)cc2)NC(=O)[C@H](CCC(=O)O)NC(=O)[C@H](CC(C)C)NC(=O)CNC(=O)[C@@H](NC(=O)[C@H](CC(C)C)NC(=O)[C@H](CCCNC(=N)N)NC(=O)[C@@H](NC(=O)[C@H](CO)NC(=O)[C@H](CCC(=O)O)NC(=O)[C@@H](N)CCCCN)C(C)C)CSSC[C@H](N)C(=O)N[C@@H](CCCNC(=N)N)C(=O)N[C@@H](CCC(=O)O)C(=O)NCC(=O)N[C@@H](C)C(=O)N[C@@H](CO)C(=O)N[C@@H](CCSC)C(=O)N[C@@H](CCCCN)C(=O)N[C@@H](CCC(=O)O)C(=O)N[C@@H](CC(C)C)C(=O)N[C@@H](CO)C(=O)N[C@@H]([C@@H](C)O)C(=O)N[C@@H](CC(C)C)C(=O)N[C@H](C(=O)O)CSSC[C@@H](C(=O)N[C@@H](C)C(=O)N[C@@H](CO)C(=O)N[C@@H](CO)C(=O)N[C@@H](CCCNC(=N)N)C(=O)N[C@@H](Cc2c[nH]c3ccccc23)C(=O)O)NC1=O (I: H-KESVRLCGLEYIRTVIYICASSRW-OH / II: H-CREGASMKELSTLC-OH; disulfide I:7-II:1, I:19-II:14)
